Measured values as given in paper PMC11200585, “Prospects for Prostate Cancer Chemotherapy: Cytotoxic Evaluation and Mechanistic Insights of Quinolinequinones with ADME/PK Profile” (Biomedicines, 2024).

Legend:
Assay type in all cases: cell-based, human
DU-145 = experiment: NCI-60 one-dose screen (prostate cancer); settings: 10 µM single dose, 48 h
PC-3 = experiment: NCI-60 one-dose screen (prostate cancer); settings: 10 µM single dose
CCRF-CEM = experiment: NCI-60 five-dose assay (leukemia); settings: Homo sapiens, 48 h, SRB
K-562 = experiment: NCI-60 five-dose assay (leukemia); settings: SRB
MOLT-4 = experiment: NCI-60 five-dose assay (leukemia); settings: 48 h, SRB
RPMI-8226 = experiment: NCI-60 five-dose assay (leukemia); settings: 48 h, SRB
SR = experiment: NCI-60 five-dose assay (leukemia); settings: 48 h, SRB
A549/ATCC = experiment: NCI-60 five-dose assay (non-small cell lung cancer); settings: 48 h, SRB
HOP-62 = experiment: as above; settings: 48 h, SRB
HOP-92 = experiment: as above; settings: 48 h, SRB
NCI-H226 = experiment: as above; settings: 48 h, SRB
NCI-H460 = experiment: as above; settings: 48 h, SRB
HCT-116 = experiment: NCI-60 five-dose assay (colon cancer); settings: 48 h, SRB
HCT-15 = experiment: NCI-60 five-dose assay (colon cancer); settings: 48 h, SRB
HT29 = experiment: NCI-60 five-dose assay (colon cancer); settings: SRB
KM12 = experiment: NCI-60 five-dose assay (colon cancer); settings: 48 h, SRB
SW-620 = experiment: NCI-60 five-dose assay (colon cancer); settings: 48 h, SRB
SF-268 = experiment: NCI-60 five-dose assay (CNS cancer); settings: 48 h, SRB
SF-295 = experiment: NCI-60 five-dose assay (CNS cancer); settings: 48 h, SRB
SNB-19 = experiment: NCI-60 five-dose assay (CNS cancer); settings: 48 h, SRB
LOX IMVI = experiment: NCI-60 five-dose assay (melanoma); settings: 48 h, SRB
MALME-3M = experiment: NCI-60 five-dose assay (melanoma); settings: 48 h, SRB
SK-MEL-2 = experiment: NCI-60 five-dose assay (melanoma); settings: 48 h, SRB
SK-MEL-5 = experiment: NCI-60 five-dose assay (melanoma); settings: 48 h, SRB
IGROV1 = experiment: NCI-60 five-dose assay (ovarian cancer); settings: SRB
SK-OV-3 = experiment: NCI-60 five-dose assay (ovarian cancer); settings: 48 h, SRB
A498 = experiment: NCI-60 five-dose assay (renal cancer); settings: 48 h, SRB
ACHN = experiment: NCI-60 five-dose assay (renal cancer); settings: 48 h, SRB
CAKI-1 = experiment: NCI-60 five-dose assay (renal cancer); settings: 48 h, SRB
MDA-MB-231/ATCC = experiment: NCI-60 five-dose assay (breast cancer); settings: 48 h, SRB
HS 578T = experiment: NCI-60 five-dose assay (breast cancer); settings: 48 h, SRB
T-47D = experiment: NCI-60 five-dose assay (breast cancer); settings: 48 h, SRB
[1] = Homo sapiens, read-out: LC50 (the source's name)

COc1cc(NC2=C(Cl)C(=O)c3nc(C)ccc3C2=O)cc(OC)c1 [AQQ5]
GP (growth percentage) (DU-145): −92.99%
GP (growth percentage) (PC-3; 48 h): 27.99%
inhibition at 10 µM (PC-3; Homo sapiens): 72%
GI50 (CCRF-CEM): 2.23 µM
LC50 (concentration killing 50% of cells) (CCRF-CEM): > 100 µM
TGI (K-562; 48 h): >100 µM
GI50 (K-562; Homo sapiens, K562, 48 h): 0.381 µM
LC50 (K-562; Homo sapiens, K562, 48 h): > 100 µM
TGI (MOLT-4): 7.00 µM
GI50 (MOLT-4; Homo sapiens): 1.5 µM
LC50 (MOLT-4; Homo sapiens): > 100 µM
TGI (RPMI-8226): 5.19 µM
GI50 (RPMI-8226; Homo sapiens): 1.79 µM
CC50 (RPMI-8226; [1]): > 100 µM
TGI (SR): 2.43 µM
GI50 (SR; Homo sapiens): 0.35 µM
CC50 (SR; [1]): > 100 µM
TGI (A549/ATCC): 8.97 µM
GI50 (A549/ATCC; Homo sapiens): 2.83 µM
CC50 (A549/ATCC; [1]): 38.8 µM
TGI (HOP-62): 14.1 µM
GI50 (HOP-62; Homo sapiens): 4.26 µM
LC50 (concentration killing 50% of cells) (HOP-62; Homo sapiens): 37.7 µM
TGI (HOP-92): 3.17 µM
GI50 (HOP-92; Homo sapiens): 1.73 µM
LC50 (50% lethal concentration) (HOP-92; Homo sapiens): 5.83 µM
TGI (NCI-H226): 8.35 µM
GI50 (NCI-H226; Homo sapiens): 2.82 µM
LC50 (NCI-H226; Homo sapiens): 46.1 µM
TGI (NCI-H460): 8.07 µM
GI50 (NCI-H460; Homo sapiens): 2.68 µM
CC50 (NCI-H460; [1]): 82.6 µM
TGI (HCT-116): 2.88 µM
GI50 (HCT-116; Homo sapiens): 1.53 µM
LC50 (HCT-116; Homo sapiens): 5.45 µM
TGI (HCT-15): 3.92 µM
GI50 (HCT-15; Homo sapiens): 1.54 µM
TGI (HT29; 48 h): 3.48 µM
GI50 (HT29; Homo sapiens, HT-29, 48 h): 1.87 µM
LC50 (concentration killing 50% of cells) (HT29; Homo sapiens, HT-29, 48 h): 6.48 µM
TGI (KM12): 26.6 µM
GI50 (KM12; Homo sapiens): 13 µM
CC50 (KM12; [1]): 54.7 µM
TGI (SW-620): 3.47 µM
GI50 (SW-620; Homo sapiens): 1.76 µM
LC50 (SW-620; Homo sapiens): 6.85 µM
TGI (SF-268): 14.4 µM
GI50 (SF-268; Homo sapiens): 3.25 µM
LC50 (concentration killing 50% of cells) (SF-268; Homo sapiens): 72.7 µM
TGI (SF-295): 5.41 µM
GI50 (SF-295; Homo sapiens): 1.99 µM
LC50 (50% lethal concentration) (SF-295; Homo sapiens): 20.8 µM
TGI (SNB-19): 18.8 µM
GI50 (SNB-19; Homo sapiens): 5.82 µM
CC50 (SNB-19; [1]): 44.2 µM
TGI (LOX IMVI): 2.32 µM
GI50 (LOX IMVI; Homo sapiens): 1.1 µM
LC50 (concentration killing 50% of cells) (LOX IMVI; Homo sapiens): 4.88 µM
TGI (MALME-3M): 3.28 µM
GI50 (MALME-3M; Homo sapiens): 1.76 µM
LC50 (MALME-3M; Homo sapiens): 6.11 µM
TGI (SK-MEL-2): 3.10 µM
GI50 (SK-MEL-2; Homo sapiens): 1.59 µM
CC50 (SK-MEL-2; [1]): 6.03 µM
TGI (SK-MEL-5): 2.97 µM
GI50 (SK-MEL-5; Homo sapiens): 1.62 µM
CC50 (SK-MEL-5; [1]): 5.47 µM
TGI (IGROV1; 48 h): 3.55 µM
GI50 (IGROV1; Homo sapiens, IGROV-1, 48 h): 1.73 µM
LC50 (IGROV1; Homo sapiens, IGROV-1, 48 h): 7.26 µM
TGI (SK-OV-3): 25.1 µM
GI50 (SK-OV-3; Homo sapiens): 12.6 µM
LC50 (50% net cell kill) (SK-OV-3; Homo sapiens): 50.1 µM
TGI (A498): 11.4 µM
GI50 (A498; Homo sapiens): 2.35 µM
LC50 (A498; Homo sapiens): 33.8 µM
TGI (ACHN): 3.04 µM
GI50 (ACHN; Homo sapiens): 1.67 µM
LC50 (ACHN; Homo sapiens): 5.51 µM
TGI (CAKI-1): 3.15 µM
GI50 (CAKI-1; Homo sapiens): 1.76 µM
LC50 (lethal concentration, 50% net cell kill) (CAKI-1; Homo sapiens): 5.65 µM
TGI (MDA-MB-231/ATCC): 3.08 µM
GI50 (MDA-MB-231/ATCC; Homo sapiens): 1.46 µM
LC50 (concentration killing 50% of cells) (MDA-MB-231/ATCC; Homo sapiens): 6.48 µM
TGI (HS 578T): 5.78 µM
GI50 (HS 578T; Homo sapiens): 2.43 µM
CC50 (HS 578T; [1]): > 100 µM
TGI (T-47D): 3.62 µM
GI50 (T-47D; Homo sapiens, T47D): 1.5 µM
CC50 (T-47D; Homo sapiens, T47D, read-out: LC50 (the source's name)): 8.74 µM
